Results published in a compilation of properties of binary mixtures (doi:10.1524/zpch.2013.0328).

Assay: xn = mol fraction of the nth substance listed
Details: 100 kPa

CC(C)C[P+](C)(CC(C)C)CC(C)C.Cc1ccc(S(=O)(=O)[O-])cc1 + O
viscosity [mPa·s]
Details	301.15 K	313.15 K	323.15 K	333.15 K	343.15 K	353.15 K
x1 = 0.4387	264	131	–	47	–	24
x1 = 0.9022	–	887	423	–	126	–

CC(CC(C)(C)C)CP(=O)([O-])CC(C)CC(C)(C)C.CCCCCCCCCCCCCC[P+](CCCCCC)(CCCCCC)CCCCCC + O
viscosity [mPa·s]
Details	298.15 K	303.15 K	313.15 K	323.15 K	333.15 K	343.15 K	353.15 K
x1 = 0.1299	–	105	65	42	29	22	16
x1 = 0.7942	1004	757	439	–	170	111	78

CCCCCCCCCCCCCC[P+](CCCC)(CCCC)CCCC.CCCCCCCCCCCCc1ccc(S(=O)(=O)[O-])cc1 + O
viscosity [mPa·s]
Details	298.15 K	303.15 K	313.15 K	323.15 K	333.15 K	343.15 K	353.15 K
x1 = 0.3452	506	365	197	–	74	54	40
x1 = 0.892	–	–	1477	750	409	238	–

CCCCCCCCCCCCCC[P+](CCCCCC)(CCCCCC)CCCCCC.N#C[N-]C#N + O
viscosity [mPa·s]
Details	303.15 K	313.15 K	323.15 K	333.15 K	343.15 K	353.15 K
x1 = 0.551	138	86	53	40	28	22
x1 = 0.8444	–	196	123	82	56	41

CCCCCCCC[N+](C)(CCCCCCCC)CCCCCCCC.O=S(=O)([N-]S(=O)(=O)C(F)(F)F)C(F)(F)F + O
x1 = 0.8467
Details	viscosity [mPa·s]
298.15 K	601
303.15 K	426
323.15 K	144
333.15 K	92
353.15 K	46

CC[n+]1ccn(C)c1.O=S(=O)([N-]S(=O)(=O)C(F)(F)F)C(F)(F)F + O
x2 = 0.0086
Details	viscosity [mPa·s]
299.15 K	33
303.15 K	28
313.15 K	22
323.15 K	18
333.15 K	14
343.15 K	12
